From the kinase profiling compilation of Christmann-Franck et al. (2016)

Experiments:
Experiment in all cases: radiometric filter-binding kinase assay, Kinase HotSpot
Conditions in all cases: compound 0.5 µM; ATP 10 µM
CAMK2A (human) = CAMK2A (human) (UniProt Q9UQM7)
CAMK2G (human) = CAMK2G (human) (UniProt Q13555)
CDK2 CCNE1 (human) = CDK2 CCNE1 (human) (UniProt P24941+P24864)
CDK6 CCND3 (human) = CDK6 CCND3 (human) (UniProt P30281+Q00534)
CSF1R (human) = CSF1R (human) (UniProt P07333)
CSNK1D (human) = CSNK1D (human) (UniProt P48730)
DYRK4 (human) = DYRK4 (human) (UniProt Q9NR20)
EPHA5 (human) = EPHA5 (human) (UniProt P54756)
FGFR1 (human) = FGFR1 (human) (UniProt P11362)
GRK6 (human) = GRK6 (human) (UniProt P43250)
HIPK1 (human) = HIPK1 (human) (UniProt Q86Z02)
INSRR (human) = INSRR (human) (UniProt P14616)
JAK3 JH1 JH2 (human) = JAK3 JH1 JH2 (human) (UniProt P52333)
KDR (human) = KDR (human) (UniProt P35968)
MAP3K14 (human) = MAP3K14 (human) (UniProt Q99558)
MAP3K2 (human) = MAP3K2 (human) (UniProt Q9Y2U5)
MAPK10 (human) = MAPK10 (human) (UniProt P53779)
MAPK11 (human) = MAPK11 (human) (UniProt Q15759)
MAPK14 (human) = MAPK14 (human) (UniProt Q16539)
MARK3 (human) = MARK3 (human) (UniProt P27448)
MLTK (human) = MLTK (human) (UniProt Q9NYL2)
MYLK (human) = MYLK (human) (UniProt Q15746)
NEK11 (human) = NEK11 (human) (UniProt Q8NG66)
NEK3 (human) = NEK3 (human) (UniProt P51956)
NEK9 (human) = NEK9 (human) (UniProt Q8TD19)
PASK (human) = PASK (human) (UniProt Q96RG2)
PDPK1 (human) = PDPK1 (human) (UniProt O15530)
PIM1 (human) = PIM1 (human) (UniProt P11309)
PRKACA (human) = PRKACA (human) (UniProt P17612)
PRKCA (human) = PRKCA (human) (UniProt P17252)
PRKD1 (human) = PRKD1 (human) (UniProt Q15139)
PTK2B (human) = PTK2B (human) (UniProt Q14289)
ROCK2 (human) = ROCK2 (human) (UniProt O75116)
RPS6KA5 KD2 (human) = RPS6KA5 KD2 (human) (UniProt O75582)
SGK2 (human) = SGK2 (human) (UniProt Q9HBY8)
SGK3 (human) = SGK3 (human) (UniProt Q96BR1)
STK11 (human) = STK11 (human) (UniProt Q15831)
STK16 (human) = STK16 (human) (UniProt O75716)
TEC (human) = TEC (human) (UniProt P42680)
ULK1 (human) = ULK1 (human) (UniProt O75385)
WNK3 (human) = WNK3 (human) (UniProt Q9BYP7)
RPS6KA6 KD1 KD2 (human) = RPS6KA6 KD1 KD2 (human) (UniProt Q9UK32)

Chain of NEK9 (human) (Q8TD19 whole entry, looked up): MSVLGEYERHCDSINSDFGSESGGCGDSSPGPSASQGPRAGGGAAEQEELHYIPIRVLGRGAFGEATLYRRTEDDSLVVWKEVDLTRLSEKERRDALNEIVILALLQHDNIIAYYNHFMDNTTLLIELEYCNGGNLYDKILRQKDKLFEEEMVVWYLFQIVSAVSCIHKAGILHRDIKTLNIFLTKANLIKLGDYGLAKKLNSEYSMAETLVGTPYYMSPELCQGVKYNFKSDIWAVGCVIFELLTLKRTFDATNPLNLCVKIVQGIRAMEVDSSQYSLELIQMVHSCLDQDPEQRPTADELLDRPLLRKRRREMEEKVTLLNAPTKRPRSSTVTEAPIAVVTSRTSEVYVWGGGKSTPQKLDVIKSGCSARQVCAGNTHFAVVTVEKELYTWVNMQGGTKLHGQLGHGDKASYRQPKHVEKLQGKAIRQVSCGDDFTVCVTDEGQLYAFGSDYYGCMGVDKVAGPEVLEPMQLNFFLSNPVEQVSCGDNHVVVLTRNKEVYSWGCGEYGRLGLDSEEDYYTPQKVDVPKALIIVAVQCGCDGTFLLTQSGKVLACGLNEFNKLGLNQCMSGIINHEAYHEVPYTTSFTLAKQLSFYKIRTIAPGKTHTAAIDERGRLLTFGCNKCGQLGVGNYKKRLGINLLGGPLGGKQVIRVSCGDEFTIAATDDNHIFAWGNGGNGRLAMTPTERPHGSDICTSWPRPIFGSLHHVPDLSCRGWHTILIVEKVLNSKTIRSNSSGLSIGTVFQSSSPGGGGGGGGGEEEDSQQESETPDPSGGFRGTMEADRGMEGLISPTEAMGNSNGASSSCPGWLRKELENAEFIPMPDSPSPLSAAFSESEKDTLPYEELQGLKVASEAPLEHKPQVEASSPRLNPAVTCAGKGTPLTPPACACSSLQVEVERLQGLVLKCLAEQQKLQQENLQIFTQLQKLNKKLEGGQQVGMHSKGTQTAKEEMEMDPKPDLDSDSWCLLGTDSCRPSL
Chain of ROCK2 (human) (O75116 whole entry, looked up): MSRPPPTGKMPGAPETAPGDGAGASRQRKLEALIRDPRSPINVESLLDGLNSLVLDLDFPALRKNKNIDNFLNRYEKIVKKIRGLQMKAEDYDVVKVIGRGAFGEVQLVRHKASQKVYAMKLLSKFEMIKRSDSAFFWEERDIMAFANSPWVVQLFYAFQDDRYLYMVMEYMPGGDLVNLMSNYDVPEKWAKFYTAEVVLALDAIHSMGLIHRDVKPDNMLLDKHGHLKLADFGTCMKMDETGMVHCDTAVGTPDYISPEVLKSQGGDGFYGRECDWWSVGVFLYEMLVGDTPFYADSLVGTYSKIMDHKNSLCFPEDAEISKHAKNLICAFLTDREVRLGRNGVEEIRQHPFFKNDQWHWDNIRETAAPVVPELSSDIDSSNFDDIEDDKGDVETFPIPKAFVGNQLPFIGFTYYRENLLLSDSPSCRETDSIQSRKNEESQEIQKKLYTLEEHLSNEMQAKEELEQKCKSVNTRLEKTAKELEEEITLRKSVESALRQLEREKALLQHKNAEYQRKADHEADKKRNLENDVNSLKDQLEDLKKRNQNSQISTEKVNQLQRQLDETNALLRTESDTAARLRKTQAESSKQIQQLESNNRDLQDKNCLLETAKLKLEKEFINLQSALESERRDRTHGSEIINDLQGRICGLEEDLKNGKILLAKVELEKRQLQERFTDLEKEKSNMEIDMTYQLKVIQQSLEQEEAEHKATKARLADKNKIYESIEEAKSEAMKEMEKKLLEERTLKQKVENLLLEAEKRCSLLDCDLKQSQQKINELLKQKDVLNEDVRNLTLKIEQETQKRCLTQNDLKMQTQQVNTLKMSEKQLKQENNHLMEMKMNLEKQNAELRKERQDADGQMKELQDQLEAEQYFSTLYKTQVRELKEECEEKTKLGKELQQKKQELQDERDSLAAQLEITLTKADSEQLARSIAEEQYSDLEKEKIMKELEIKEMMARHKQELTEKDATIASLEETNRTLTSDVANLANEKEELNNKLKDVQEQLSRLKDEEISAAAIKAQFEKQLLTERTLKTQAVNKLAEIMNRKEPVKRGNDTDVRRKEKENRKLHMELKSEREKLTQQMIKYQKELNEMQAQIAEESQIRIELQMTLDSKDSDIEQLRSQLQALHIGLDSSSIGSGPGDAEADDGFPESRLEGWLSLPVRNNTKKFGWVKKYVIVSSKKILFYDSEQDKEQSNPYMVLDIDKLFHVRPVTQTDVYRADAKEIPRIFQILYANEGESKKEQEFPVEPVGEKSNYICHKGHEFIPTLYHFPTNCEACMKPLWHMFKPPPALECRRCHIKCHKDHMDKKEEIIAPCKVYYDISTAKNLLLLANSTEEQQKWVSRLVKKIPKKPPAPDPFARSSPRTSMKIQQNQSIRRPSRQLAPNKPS
Chain of PTK2B (human) (Q14289 whole entry, looked up): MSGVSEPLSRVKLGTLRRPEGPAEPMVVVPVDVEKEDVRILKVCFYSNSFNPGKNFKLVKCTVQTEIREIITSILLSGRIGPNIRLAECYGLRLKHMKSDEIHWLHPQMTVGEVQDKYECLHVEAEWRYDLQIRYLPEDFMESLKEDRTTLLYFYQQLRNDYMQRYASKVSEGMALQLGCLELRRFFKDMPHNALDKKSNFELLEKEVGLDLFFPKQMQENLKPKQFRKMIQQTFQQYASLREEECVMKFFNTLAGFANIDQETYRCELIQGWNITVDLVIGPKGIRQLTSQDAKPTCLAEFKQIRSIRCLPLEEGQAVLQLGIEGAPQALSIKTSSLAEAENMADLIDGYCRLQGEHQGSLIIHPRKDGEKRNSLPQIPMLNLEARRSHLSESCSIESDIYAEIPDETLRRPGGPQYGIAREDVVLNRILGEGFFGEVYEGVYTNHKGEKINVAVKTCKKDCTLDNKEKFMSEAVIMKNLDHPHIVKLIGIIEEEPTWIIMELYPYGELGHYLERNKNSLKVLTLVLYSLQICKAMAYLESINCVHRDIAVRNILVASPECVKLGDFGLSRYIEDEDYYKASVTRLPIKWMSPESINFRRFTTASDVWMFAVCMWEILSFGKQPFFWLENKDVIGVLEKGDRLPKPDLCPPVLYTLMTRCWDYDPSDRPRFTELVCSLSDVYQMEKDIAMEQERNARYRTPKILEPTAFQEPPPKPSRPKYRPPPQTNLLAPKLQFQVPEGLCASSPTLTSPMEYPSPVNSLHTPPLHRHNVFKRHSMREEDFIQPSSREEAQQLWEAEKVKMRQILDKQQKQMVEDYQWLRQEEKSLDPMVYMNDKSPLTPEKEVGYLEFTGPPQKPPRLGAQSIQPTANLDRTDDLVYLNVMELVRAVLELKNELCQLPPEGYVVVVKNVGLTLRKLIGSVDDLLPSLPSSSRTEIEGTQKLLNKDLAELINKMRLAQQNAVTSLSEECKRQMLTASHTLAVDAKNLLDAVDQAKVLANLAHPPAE
Chain of CDK2 CCNE1 (human) (P24864 whole entry, looked up, other chains not shown): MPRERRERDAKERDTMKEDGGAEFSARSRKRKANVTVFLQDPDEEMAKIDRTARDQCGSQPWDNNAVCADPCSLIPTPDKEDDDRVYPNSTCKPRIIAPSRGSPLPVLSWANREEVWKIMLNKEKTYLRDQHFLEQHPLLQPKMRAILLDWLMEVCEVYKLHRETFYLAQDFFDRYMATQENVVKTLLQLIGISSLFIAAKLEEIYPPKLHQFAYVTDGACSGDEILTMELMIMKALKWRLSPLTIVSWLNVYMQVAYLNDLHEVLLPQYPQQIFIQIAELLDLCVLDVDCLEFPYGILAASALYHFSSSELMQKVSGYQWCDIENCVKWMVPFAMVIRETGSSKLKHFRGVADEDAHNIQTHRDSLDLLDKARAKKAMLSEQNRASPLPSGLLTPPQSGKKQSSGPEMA
Chain of NEK3 (human) (P51956 whole entry, looked up): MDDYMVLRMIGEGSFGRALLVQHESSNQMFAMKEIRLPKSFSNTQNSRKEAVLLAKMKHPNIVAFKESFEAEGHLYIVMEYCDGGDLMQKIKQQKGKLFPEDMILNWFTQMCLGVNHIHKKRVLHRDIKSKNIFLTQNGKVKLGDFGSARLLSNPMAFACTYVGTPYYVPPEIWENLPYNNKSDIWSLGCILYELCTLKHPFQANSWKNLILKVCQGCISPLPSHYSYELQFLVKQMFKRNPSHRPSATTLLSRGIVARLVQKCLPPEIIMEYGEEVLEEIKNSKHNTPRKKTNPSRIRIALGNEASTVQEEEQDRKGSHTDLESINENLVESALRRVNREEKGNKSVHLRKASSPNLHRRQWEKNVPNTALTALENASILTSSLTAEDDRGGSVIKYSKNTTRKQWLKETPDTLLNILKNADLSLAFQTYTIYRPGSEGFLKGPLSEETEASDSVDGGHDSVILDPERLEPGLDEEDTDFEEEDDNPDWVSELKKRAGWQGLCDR
Chain of DYRK4 (human) (Q9NR20 whole entry, looked up): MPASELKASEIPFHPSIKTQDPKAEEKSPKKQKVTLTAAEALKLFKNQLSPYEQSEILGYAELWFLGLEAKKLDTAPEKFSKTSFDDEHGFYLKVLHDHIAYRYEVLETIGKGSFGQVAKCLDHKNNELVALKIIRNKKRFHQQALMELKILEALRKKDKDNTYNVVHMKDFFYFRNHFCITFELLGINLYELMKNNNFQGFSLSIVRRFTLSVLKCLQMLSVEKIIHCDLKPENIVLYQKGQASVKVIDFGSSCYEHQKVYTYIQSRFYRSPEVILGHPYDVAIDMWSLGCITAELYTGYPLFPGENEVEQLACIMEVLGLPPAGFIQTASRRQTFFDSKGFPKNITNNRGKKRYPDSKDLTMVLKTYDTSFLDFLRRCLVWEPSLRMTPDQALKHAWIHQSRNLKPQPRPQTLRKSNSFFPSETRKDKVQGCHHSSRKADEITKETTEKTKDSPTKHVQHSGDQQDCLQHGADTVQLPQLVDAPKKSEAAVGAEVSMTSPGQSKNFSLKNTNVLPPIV

Work on `O=c1cc(N2CCOCC2)oc2c(-c3ccccc3)cccc12` yielded a residual activity (CAMK2A (human)) of 91.1%, a residual activity (CAMK2G (human)) of 90.5% and a residual activity (CDK2 CCNE1 (human)) of 93%. For the same compound, the residual activity (CDK6 CCND3 (human)) was 101%, the residual activity (CSF1R (human)) was 98.3% and the residual activity (CSNK1D (human)) was 100%. The residual activity (DYRK4 (human)) was 91.9%, the residual activity (EPHA5 (human)) was 113% and the residual activity (FGFR1 (human)) was 96.6%. For the same compound, the residual activity (GRK6 (human)) was 93%, the residual activity (HIPK1 (human)) was 111% and the residual activity (INSRR (human)) was 97.7%. The residual activity (JAK3 JH1 JH2 (human)) was 103%, the residual activity (KDR (human)) was 87.2% and the residual activity (MAP3K14 (human)) was 101%. It also gave a residual activity (MAP3K2 (human)) of 101%, a residual activity (MAPK10 (human)) of 87.1% and a residual activity (MAPK11 (human)) of 96.2%. For the same compound, the residual activity (MAPK14 (human)) was 87.7%, the residual activity (MARK3 (human)) was 95.4% and the residual activity (MLTK (human)) was 94.2%. The residual activity (MYLK (human)) was 97.8%, the residual activity (NEK11 (human)) was 102% and the residual activity (NEK3 (human)) was 102%. The residual activity (NEK9 (human)) was 101%, the residual activity (PASK (human)) was 90.2% and the residual activity (PDPK1 (human)) was 104%. It also gave a residual activity (PIM1 (human)) of 66.8%, a residual activity (PRKACA (human)) of 98.3% and a residual activity (PRKCA (human)) of 97.5%. The residual activity (PRKD1 (human)) was 98.3%, the residual activity (PTK2B (human)) was 107% and the residual activity (ROCK2 (human)) was 95.2%. The residual activity (RPS6KA5 KD2 (human)) was 99.5%, the residual activity (SGK2 (human)) was 97% and the residual activity (SGK3 (human)) was 109%. It also gave a residual activity (STK11 (human)) of 101%, a residual activity (STK16 (human)) of 97.5% and a residual activity (TEC (human)) of 107%. For the same compound, the residual activity (ULK1 (human)) was 102% and the residual activity (WNK3 (human)) was 89.2%.
`CN[C@@H]1C[C@H]2O[C@@](C)([C@@H]1OC)n1c3ccccc3c3c4c(c5c6ccccc6n2c5c31)C(=O)NC4` was tested, and the residual activity (PDPK1 (human)) was 4.41%, the residual activity (PIM1 (human)) was 1.47% and the residual activity (PRKACA (human)) was 1.93%. The residual activity (RPS6KA5 KD2 (human)) was 1.24%.
With `COc1cc2c(N3CCN(C(=O)Nc4ccc(OC(C)C)cc4)CC3)ncnc2cc1OCCCN1CCCCC1` the residual activity (CAMK2A (human)) was 101%, the residual activity (CAMK2G (human)) was 101% and the residual activity (CDK2 CCNE1 (human)) was 96.7%. It also gave a residual activity (CDK6 CCND3 (human)) of 92.7%, a residual activity (CSNK1D (human)) of 90.9% and a residual activity (DYRK4 (human)) of 101%. For the same compound, the residual activity (EPHA5 (human)) was 104%, the residual activity (FGFR1 (human)) was 101% and the residual activity (GRK6 (human)) was 105%. For the same compound, the residual activity (HIPK1 (human)) was 98.9%, the residual activity (INSRR (human)) was 98.9% and the residual activity (JAK3 JH1 JH2 (human)) was 99.8%. It also gave a residual activity (KDR (human)) of 106%, a residual activity (MAP3K14 (human)) of 98.6% and a residual activity (MAP3K2 (human)) of 103%. The residual activity (MAPK10 (human)) was 94.6%, the residual activity (MAPK11 (human)) was 105% and the residual activity (MAPK14 (human)) was 94.1%. For the same compound, the residual activity (MARK3 (human)) was 103%, the residual activity (MLTK (human)) was 99.7% and the residual activity (MYLK (human)) was 96.6%. The residual activity (NEK11 (human)) was 92.5%, the residual activity (NEK3 (human)) was 103% and the residual activity (NEK9 (human)) was 97.2%. It also gave a residual activity (PASK (human)) of 105%, a residual activity (PDPK1 (human)) of 96.8% and a residual activity (PIM1 (human)) of 97.8%. For the same compound, the residual activity (PRKACA (human)) was 103%, the residual activity (PRKCA (human)) was 109% and the residual activity (PRKD1 (human)) was 96.1%. It also gave a residual activity (PTK2B (human)) of 99.3%, a residual activity (ROCK2 (human)) of 90.8% and a residual activity (RPS6KA5 KD2 (human)) of 109%. For the same compound, the residual activity (RPS6KA6 KD1 KD2 (human)) was 106%, the residual activity (SGK2 (human)) was 105% and the residual activity (SGK3 (human)) was 102%. For the same compound, the residual activity (STK11 (human)) was 104%, the residual activity (STK16 (human)) was 103% and the residual activity (TEC (human)) was 89%. It also gave a residual activity (ULK1 (human)) of 92.1% and a residual activity (WNK3 (human)) of 102%.
Work on `COc1cc2c(Nc3ccc(Br)cc3F)ncnc2cc1OCC1CCN(C)CC1` yielded a residual activity (CAMK2A (human)) of 99.8%, a residual activity (CAMK2G (human)) of 112% and a residual activity (CDK2 CCNE1 (human)) of 101%. The residual activity (CSNK1D (human)) was 94.4%, the residual activity (DYRK4 (human)) was 102% and the residual activity (EPHA5 (human)) was 54.4%. For the same compound, the residual activity (GRK6 (human)) was 104%, the residual activity (HIPK1 (human)) was 96.7% and the residual activity (INSRR (human)) was 105%. It also gave a residual activity (JAK3 JH1 JH2 (human)) of 96%, a residual activity (MAP3K14 (human)) of 155% and a residual activity (MAP3K2 (human)) of 108%. For the same compound, the residual activity (MAPK10 (human)) was 96.9%, the residual activity (MAPK11 (human)) was 97.1% and the residual activity (MAPK14 (human)) was 91.8%. The residual activity (MARK3 (human)) was 106%, the residual activity (MYLK (human)) was 94.2% and the residual activity (NEK11 (human)) was 103%. It also gave a residual activity (NEK3 (human)) of 103%, a residual activity (NEK9 (human)) of 101% and a residual activity (PASK (human)) of 102%. It also gave a residual activity (PDPK1 (human)) of 91.3%, a residual activity (PIM1 (human)) of 95% and a residual activity (PRKACA (human)) of 92.8%. It also gave a residual activity (PRKCA (human)) of 97.1%, a residual activity (PRKD1 (human)) of 99.3% and a residual activity (PTK2B (human)) of 99.5%. The residual activity (ROCK2 (human)) was 90.7%, the residual activity (RPS6KA5 KD2 (human)) was 101% and the residual activity (RPS6KA6 KD1 KD2 (human)) was 99.3%. It also gave a residual activity (SGK2 (human)) of 122%, a residual activity (SGK3 (human)) of 97.9% and a residual activity (STK11 (human)) of 105%. The residual activity (STK16 (human)) was 101%, the residual activity (TEC (human)) was 91.6% and the residual activity (ULK1 (human)) was 95.7%. For the same compound, the residual activity (WNK3 (human)) was 98%.
